Assay results as given in US6627441B1, “Increasing levels of growth regulator and/or water stress during embryo development” (priority 1998, dated 2003).

What was measured:
[1] = test system: white spruce somatic embryos; experiment: Liquid maturation pretreatments with ABA and PEG, number of mature embryos (Example 7); format: cell-based
Description: Experiments were established to determine whether increasing ABA and water stress can be applied early in maturation. Somatic embryos in liquid maintenance suspension culture were transferred to liquid culture medium containing 1/20 of the strength of hormones in the preculture medium for 7 days. Seven treatments were prepared using these cultures as outlined below.
Starting water potential was 112 mmol/kg, and all preculture media contained 1/20 strength 2,4-D and BA that were present in the proliferation medium. Following these treatments, a 20% suspension was prepared and the embryos were plated onto solidified maturation medium containing PEG adjusted to 290 mmol/kg with PEG and 20 μM ABA.
Experiments were repeated at least three times and three replicates were prepared per treatment. Cultures were transferred to fresh medium every two weeks. Alternatively, to determine if PEG/ABA liquid maturation treatments modified the optimal starting water potential, the embryos were plated from the nine treatments to medium containing ABA at 20 μM and PEG at 290 or 380 mmol/kg. Additionally, to determine if PEG/ABA liquid maturation treatments modified the optimal starting ABA concentration, the embryos were plated from the nine treatments to medium containing PEG at 337 mmol/kg and ABA at 20 or 40 μM. Cultures were transferred to fresh medium every two weeks. After six weeks, the number of embryos developing per 0.75 mL starting inoculum was recorded. It can be seen from FIG. 3 that all treatments in which PEG and ABA were added gave an improvement over the control. Previous experiments had shown that the control ( 1/20 of the hormones present in the proliferation medium) yielded almost four times the number of mature embryos compared to no pretreatment (i e., full hormone treatment), and almost three times the number of mature embryos compared to culture in hormone-free preculture medium (i e., means of 154, 41, and 58 mature embryos per replicate, respectively). […] The best treatments were those that contained additions of both PEG and ABA. […]

[2] = test system: Douglas fir somatic embryos; experiment: Douglas fir somatic embryogenesis (Example 11); format: cell-based
Description: Douglas fir may be cultured using sucrose at 1-3% (30-90 mM), however, other sugars may be used at the same concentrations. Maintenance cultures usually contain the sugar at about 1%. […] Douglas fir embryogenic tissue was induced from developing seed. Embryos contained in megametophytes were induced and maintained on TX maintenance medium having 1% sucrose. This medium contained 0.2 g/L glutamine and 0.2 g/L casein hydrolysate. Selected embryogenic tissue was subcultured biweekly per petri dish. Medium was solidified with 2.4 g/L PHYTAGEL™. This medium contained 9 μM 2,4-D and 4.5 μM BA. Liquid suspension cultures were maintained in flasks containing 50 mL liquid maintenance medium Liquid cultures were subcultured weekly. For maturation, the embryogenic suspension was first precultured in liquid medium without growth regulators, and subcultured weekly. The water potential of the maintenance cultures and precultures remained below 150 mmol/kg. After one or two weeks of preculture, 1 to 2 g of filtered tissue was resuspended in 10 mL fresh medium and 0.75 mL of the new suspension was pipetted onto the solid maturation medium. Maturation medium contained calcium chloride at 105 mg/L, and ammonium nitrate was included at 400 mg/L. Glutamine was used at 0.8 g/L for the first week then reduced to 0.1 g/L thereafter. Casein hydrolysate was maintained at 0.2 g/L. The sugar was increased to 2-3% and the medium was solidified with Phytagel at 2.8 to 3.4 g/L. ABA was added into the medium after filter sterilization. The maturation medium also contained PEG. The ABA and water potential were raised following the schedule in the following table.
In some instances, the PEG was reduced and the water potential made up to the desired level using lactose at 0% in the first week, 1% in week 2, 4% in weeks 3 and 4, 5% in week 5, and 6% in week 6. Although this allowed a firmer gel to set than otherwise would occur with PEG alone, it may not provide any other benefit over full PEG (see, for example, Table 8), particularly if liquid culture medium is used. […] The embryos were desiccated and stored in a freezer as described for spruce, or germinated directly without desiccation. For germination, embryos were placed on half-strength basal medium containing 0.4 g/L calcium nitrate, 0.2 g/L ammonium nitrate, no hormones and 2% sucrose and 0.6% agar. These were grown in the light.

somatic embryos = experiment: High intensity water stressing and ABA, inhibition of precocious germination (Example 3); format: cell-based, white spruce and Norway spruce
Description: Somatic embryos were plated on medium containing PEG adjusted to 290 mmol/kg PEG and 16 μM ABA then either transferred to fresh medium of the same composition every two weeks, or transferred every two weeks to medium containing increasing ABA and PEG as outlined in Table 3.

[3] = ABA 30 to 60 μM and water potential 294 to 814 mmol/kg over 6 weeks

**Q.** For CC1=CC(=O)CC(C)(C)[C@@]1(O)/C=C/C(C)=C\C(=O)O [ABA, abscisic acid], which “best starting concentration of ABA in solidified maturation medium” value ([1]; optimal liquid treatments, PEG 337 mmol/kg, 20 or 40 μM tested, FIG. 4) is on record?
**A.** 20 µM

**Q.** And the “embryos per milliliter of starting inoculum” value ([1]; treatment 8: PEG and ABA added in steps at days 3 and 5)?
**A.** over 280 embryos per milliliter

**Q.** And the “average number of mature embryos” value ([1]; treatment 8: PEG and ABA added in steps at days 3 and 5 of liquid culture, per 0.75 mL inoculum)?
**A.** about 224 mature embryos per replicate

**Q.** And the “germination with shoot and needle development, frequency” value [2, 3]?
**A.** ~100%

**Q.** And the precocious germination [2, 3]?
**A.** Precocious germination was prevented

**Q.** What about the “survival after transfer to soil in a greenhouse, frequency” value ([2]; somatic plants produced using the methods of this invention) of the same molecule?
**A.** up to 95%

**Q.** What about the precocious germination (somatic embryos; maintained on 290 mmol/kg PEG and 16 μM ABA, fresh medium every two weeks, week 10) of the same molecule?
**A.** precociously germinated

**Q.** What about the precocious germination (somatic embryos; schedule of increasing ABA (16 to 56 μM) and PEG (290 to 650 mmol/kg), biweekly transfer, 10 weeks) of the same molecule?
**A.** no evidence of precocious germination
